Results on 7 compounds are retold here after publication PMC6556231 (Journal of medicinal chemistry, 2019).

Data set [1] can be described thus: Human liver microsomal Clint. The format is in vitro ADME. The following applies: for microsomal CLint: human, HLM Clint (μL/min/mg); for microsomal CLint / HLM Clint: human liver microsomes.
Data set [2] is described as follows: Human plasma protein binding. The format is in vitro ADME. The following applies: equilibrium dialysis, 18 h, 37 °C. (In general: In equilibrium dialysis free small molecules cross a membrane that holds back macromolecules.)
The next data set concerns HepG2 cells. Kind of data set: Drug toxicity to HepG2 cells. The format is cell-based, human. The following applies: 48 h, MTT.
The next data set is described as follows: Aqueous pH 7.4. The format is physicochemical. Particulars: 0.1 M phosphate buffer pH 7.4, 25 °C, 20-24 h.
The next data set is described as follows: Chemical stability. The format is physicochemical.
Data set [3] is described as follows: Preliminary toxicity study in mice. The format is in vivo. The following applies: 100 mg/kg orally.
Data set [4] deals with Salmonella typhimurium strains. Kind of data set: Ames fluctuation assay. The format is cell-based. Particulars: with and without rat liver S9 fraction.

“Also recorded” adds a separate entry of the source.

As usually defined, the microsomal CLint is the capacity of the preparation to metabolise the compound, expressed as a volume cleared per time. Lower therefore signals greater metabolic stability.

As for `CN1C[C@@H]2C[C@H]1CN2c1ncc(-c2ccc3c(Nc4cnccn4)ccnc3c2)cn1` [10a, 7-(2-((1S,4S)-5-Methyl-2,5-diazabicyclo[2.2.1]heptan-2-yl)pyrimidin-5-yl)-N-(pyrazin-2-yl)quinolin-4-amine], the “Increase in metabolic stability compared to 1” value (shortened to “Increase in metabolic stability”) in data set [1] was found to be 4 fold.

The compound `Cc1cc2c(Nc3cnccn3)ccnc2cc1-c1cnc(N2CCN(C)CC2)nc1` [9a, 6-Methyl-7-(2-(4-methylpiperazin-1-yl)pyrimidin-5-yl)-N-(pyrazin-2-yl)quinolin-4-amine] had a microsomal CLint in data set [1] of 130 µL/min/mg.

With `CN1CCN(Nc2ncc(-c3ccc4c(Nc5cnccn5)ccnc4c3)cn2)CC1` [16f, 7-(2-((4-Methylpiperazin-1-yl)amino)pyrimidin-5-yl)-N-(pyrazin-2-yl)quinolin-4-amine], in data set [1], the “Increase in metabolic stability” value is listed as 10 fold and the “HLM Clint” value was found to be 16 µL/min/mg.

Regarding `CN1C[C@H]2C[C@@H]1CN2c1ncc(-c2ccc3c(Nc4cnccn4)ccnc3c2)cn1` [10b, 7-(2-((1R,4R)-5-Methyl-2,5-diazabicyclo[2.2.1]heptan-2-yl)pyrimidin-5-yl)-N-(pyrazin-2-yl)quinolin-4-amine], the “Increase in metabolic stability” value in data set [1] is reported as 4 fold.

On to “tert-Butyl methyl(2-((4-(4-(pyrazin-2-ylamino)quinolin-7-yl)phenyl)amino)ethyl)carbamate [6c]”, for which the “Human PPB (%)” value in data set [2] came out at 95%. The “HepG2 TC50” value in the data set on HepG2 cells was 8.0 µM. Further, the “Aq sol (μM) (thermodynamic solubility)” value in “Aqueous pH 7.4” came to 3.0 µM. For the same compound, the “HLM Clint” value in data set [1] is more than 300 µL/min/mg.

Turning to `CN1CCCN(c2ncc(-c3ccc4/c(=N/c5cnccn5)ccn(C)c4c3)cn2)CC1` [22a, (E)-1-Methyl-7-(2-(4-methyl-1,4-diazepan-1-yl)pyrimidin-5-yl)-N-(pyrazin-2-yl)quinolin-4(1H)-imine], the Hydrolytic stability entry in “Chemical stability” (acidic and basic conditions) is “hydrolytic stability was confirmed under both acidic and basic conditions”. In addition, the “Stability to hard and soft nucleophile” value in the data set “Chemical stability” (glutathione and cyanide) was “stable in the presence of both glutathione and cyanide”. For the same compound, in data set [3], the “Adverse effects in preliminary toxicity study” value was “no adverse effects”. Moreover, the Genotoxicity result in data set [4] is “Neither 22a or its metabolites were found to be genotoxic; also recorded: neither it, nor its metabolites, are genotoxic”. The compound further displayed an intrinsic metabolic clearance (microsomal CLint) in data set [1] of 22 µL/min/mg.

For the compound `Cc1c(-c2cnc(N3CCN(C)CC3)nc2)ccc2c(Nc3cnccn3)ccnc12` [9b, 8-Methyl-7-(2-(4-methylpiperazin-1-yl)pyrimidin-5-yl)-N-(pyrazin-2-yl)quinolin-4-amine], the microsomal CLint in data set [1] worked out at 120 µL/min/mg.
